The numbers were not newly measured in US20210379090A1, “REMDESIVIR ORAL DELIVERY SYSTEM” (ABON PHARMACEUTICALS, LLC, priority 2020, published 2021), which cites them from elsewhere.

One data set relates to COVID-19. As to conditions: received early within 10 days of symptom onset vs treated late after more than 10 days of symptoms.
For data set [1] the following is noted: would likely result in almost complete first-pass clearance after oral delivery.

In the case of Remdesivir, the solubility in water result was “practically insoluble”. Moreover, the clinical outcome in the data set with COVID-19 is given as “improved outcomes”. Further, the hepatic stability result in data set [1] is “poor hepatic stability”.
